Assay results as given in patent US9302014B2, “Cell-penetrating peptides having a central hydrophobic domain” (Medical Research Council, priority 2011, dated 2016).

Experiments:
[1] = Serum stability of Pip-PMO conjugates in 100% mouse serum (HPLC, MALDI-TOF); assay type: in vitro ADME; settings: 37° C.
Protocol: Serum stability may be measured by adding an aliquot of Pip-PMO (10 nmoles) to 100% mouse serum (100 μL) and incubating at 37° C. for 120 or 240 min. Each reaction is diluted with IM guanidinium-HCl solution (300 μL) and ice-cold acetonitrile (600 μL). Samples are mixed and kept at −20° C., and the precipitated serum proteins separated by centrifugation (13000 rpm, 5 min). After centrifugation, the supernatant is collected, lyophilized and the residue dissolved in water for analysis for peptide degradation by MALDI-TOF mass spectrometry and by reversed phase HPLC. HPLC conditions are: Column, C18 reversed-phase (250×4.6 mm); Solvent A, 0.1% TFA, Solvent B, 90% Acetonitrile, 10% solvent A; Gradient, 10%-50% solvent B in 25 minutes.
Serum stability was measured by adding an aliquot of Pip-PMO (10 nmoles) to 100% mouse serum (100 μL) and incubating at 37° C. for 120 or 240 min. Each reaction was diluted with IM guanidinium-HCl solution (300 μL) and ice-cold acetonitrile (600 μL). Samples were mixed and kept at −20° C., and the precipitated serum proteins separated by centrifugation (13000 rpm, 5 min). After centrifugation, the supernatant was collected, lyophilized and the residue dissolved in water for analysis for peptide degradation by MALDI-TOF mass spectrometry and by reversed phase HPLC. […]

dystrophin [2] = settings: single 25 mg/kg administration; cited from earlier work
dystrophin exon 23 = experiment: RT-PCR and quantitative real time PCR of exon skipping in mdx mouse tissues; assay type: in vivo, mdx mice; settings: diaphragm; single 12.5 mg/kg IV, 2 weeks
Source text: (§1) Given the potency of Pip5e-PMO in heart tissue, the aim of altering the sequence of the hydrophobic core (whilst maintaining the 5-aa length) was to identify peptides that might be more efficient at lower doses. These modifications included inversion of the hydrophobic region (Pip6a), substitution of tyrosine by isoleucine (Pip6b), substitution of glutamine in the Pip6a sequence by displacement of the arginine immediately flanking the core in the first arginine-rich flanking region (Pip6e), and a scrambled hydrophobic core sequence (Pip6f). All Pip6 peptide-PMO conjugates were administered to mdx mice as single 12.5 mg/kg intravenous injections via the tail vein and tissues were harvested 2 weeks later and assessed for activity at both RNA and protein levels.
The RTPCR representative images (FIG. 34d) illustrate high exon skipping efficiency in all tissues analysed. This is better shown by Real Time PCR (qRT-PCR) results for the quadriceps, diaphragm and heart (FIG. 34c). The delta 23 transcript is normalised against ‘total dystrophin’ for each muscle group (n=3). […] Western blots (FIG. 34e) were performed on the tissues of each mouse and were quantified against a 50% and 10% C57BL10 control.
Four and a half month old to 5½ month old mdx mice were used in these experiments (n=3). […]

dystrophin [3] = experiment: Immunohistochemical staining and quantification of dystrophin in mdx mice after single IV injection; assay type: in vivo; settings: heart; mdx mice, single 12.5 mg/kg IV, 2 weeks; relative to laminin, normalised to C57BL10
Source text: as §1
Immunohistochemical staining quantification (FIGS. 34a, b) was performed as previously described [Malerba, A., et al., Chronic systemic therapy with low-dose morpholino oligomers ameliorates the pathology and normalizes locomotor behavior in mdx mice. Mol Ther, 2011. 19(2): p. 345-54; Arechavala-Gomeza, V., et al., Immunohistological intensity measurements as a tool to assess sarcolemma-associated protein expression. Neuropathol Appl Neurobiol, 2010. 36(4): p. 265-74.] and was achieved by taking 4 representative frames of the dystrophin staining and correlating this with laminin staining for each section (n=3) of the quadriceps, diaphragm and heart for each peptide-PMO treatment. Untreated mdx and treated mdx mice were normalised to C57BL10 mice. This method allows comparison of the staining intensity of dystrophin at the sarcolemma relative to laminin for each treatment group. Intensity ratios are normalised to C57BL10 samples and each region of interest at the sarcolemma (120 regions for each treatment group) is plotted on a scatter graph. […]
Transverse sections of tissue samples were cut (8 μm thick) for the examination of dystrophin expression. For dystrophin visualisation and quantification, sections were co-stained with rabbit-anti-dystrophin (Abcam) and rat anti-laminin (Sigma), and detected by goat-anti-rabbit IgG Alexa 594 and goat-anti-rat IgG 488 secondary antibodies respectively (Invitrogen). […] Quantitative immunohistochemistry was performed as previously described [Malerba, A., et al., Chronic systemic therapy with low-dose morpholino oligomers ameliorates the pathology and normalizes locomotor behavior in mdx mice. […] For quantification, 4 representative frames of the dystrophin and correlating laminin were taken for each section (n=3) of the quadriceps, diaphragm and heart for each treatment. […] The minimum and maximum fluorescence intensity for 120 regions were recorded for each treatment. […]

Question: For RXRRBRRXRILFQYRXRBRXRBC [Pip5e-PMO], which “stability in 100% mouse serum” value ([1]; 120 min (2 h), HPLC and MALDI-TOF) is on record?
Answer: Its value is “unchanged Pip-PMO conjugate”.

Question: What about the “levels of PMO conjugated to fragments of peptide” value ([1]; 100% mouse serum, 120 minutes) of the same sequence?
Answer: Its value is “very similar to that for (RXRRBR)2XB-PMO”.

Question: And the “dystrophin protein restoration in all muscle types, including heart” value (dystrophin [2])?
Answer: Its value is “high levels”.

Question: What about the “Δ23 exon skipping by qRT-PCR” value (dystrophin exon 23) of the same sequence?
Answer: Its value is “highest exon skipping”.

Question: And the “percent recovery score (% RS), dystrophin immunostaining” value (dystrophin [3])?
Answer: Its value is 17.32%.
